Test results reported in PMC8268887, “Peptide/β-Peptoid Hybrids with Ultrashort PEG-Like Moieties: Effects on Hydrophobicity, Antibacterial Activity and Hemolytic Properties” (International Journal of Molecular Sciences, 2021).
Converted amounts (≈) assume the structure as drawn.

Key:
S. aureus ATCC 29213 = format: cell-based, Staphylococcus aureus; settings: ATCC 29213, 20 h
Summary of the method: (§1)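 Compounds dissolved in water were diluted into 0.01% acetic acid with 0.2% BSA (final) and added to bacterial suspensions (~5 × 10^5 CFU/mL) in cation-adjusted Mueller-Hinton broth (Mg^2+, Ca^2+ 4 mg/L each). Plates were then shaken at 180 rpm for 20 h at 35 °C (±2 °C) before reading MICs.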

A. baumannii NMI 3658/17 = format: cell-based, Acinetobacter baumannii; settings: NMI 3658/17, 20 h
Summary of the method: as §1

A. baumannii ATCC 19606 = format: cell-based, Acinetobacter baumannii; settings: ATCC 19606, 20 h
Summary of the method: as §1

[1] = Estimation of log D values (n-octanol/PBS pH 7.4, LC-MS, log Dmax from LOQ); format: physicochemical; settings: n-octanol/PBS pH 7.4, 25 °C; indicative threshold from LOQ in octanol phase
Method: A phosphate buffered saline (PBS) pH 7.4 was prepared and then saturated with n-octanol. Likewise, an n-octanol solution saturated with pH 7.4 PBS buffer was also prepared. Both solutions were shaken for 24 h, and then left for 24 h in a separating funnel to ensure complete separation of the two phases. This provided an aqueous phase (PBS buffer saturated with n-octanol) and an n-octanol phase (saturated with PBS buffer).
Samples for log D determination were prepared as following: All compounds were dissolved in PBS buffer at a concentration 4 mg/mL, which was used as stock solutions. PBS-saturated n-octanol (1.0 mL), n-octanol-saturated PBS (0.76 mL) and sample stock solution (0.24 mL) were placed into a 4-mL clear glass vial and incubated on Biosan Thermo Shaker TS-100 at 1000 rpm and 25 °C. For optimization of the assay, the incubation time was varied from 5 h to 48 h. […] After incubation samples were centrifugated and left for 30 min to ensure complete separation of the phases. The distribution coefficient was determined by quantification of the compounds both in the aqueous and n-octanol phases. Then, 100 µL of each phase were transferred to 1.5 mL champagne glass vial and evaporated using a GeneVac EZ-2 PLUS evaporation instrument. Before LC-MS analysis samples were diluted with 200 µL MeCN–0.1% aqueous formic acid (1:1, v/v).
LC-MS was performed on Acquity UPLC chromatograph coupled with a MICROMASS QUATTRO micro^TM API tandem mass spectrometer. The mass spectrometer was operated in positive electrospray ionisation mode. Parameter settings were as follows: desolvation gas (N2) flow was 600 L/h; desolvation gas temperature was 400 °C; capillary voltage, 3.30 kV; ion source temperature was 120 °C. Initial data acquisition was carried out in full-scan mode to select the most abundant ions of the individual compounds.
Waters Acquity UPLC column BEH C18 (2.1 × 50 mm, 1.7 µm particle size) was applied for analysis. Acetonitrile and 0.1% aqueous formic acid mixtures were used as mobile phase at a flow rate of 0.4 mL/min with the following gradient: 0.0–2.5 min 5–98% MeCN, 2.5–3.5 min 98% MeCN. Injection volume was 2 µL.
Limit of quantitation (LOQ) was determined using S/N ratio for each compound and used for log Dmax calculations according to the following equation:(2) log Dmax = log (theoretical peak area of n-octanol phase at LOQ concentration/peak area of buffer base) Theoretical peak area at LOQ was calculated according to the calibration curve for each compound.

[2] = system: P. aeruginosa NMI 7197/19; format: cell-based, Pseudomonas aeruginosa; settings: NMI 7197/19, 20 h
Summary of the method: as §1

P. aeruginosa PAO1 = format: cell-based, Pseudomonas aeruginosa; settings: PAO1, 20 h
Summary of the method: as §1

[3] = Hydrophobicity by retention in analytical RP-HPLC (% MeCN at peak elution); format: physicochemical; settings: for % MeCN at Elution, Aeris Peptide: Phenomenex Aeris Peptide XB-C18 column; for % MeCN at Elution, Aeris Peptide / % MeCN at Elution, Luna Omega / % MeCN at Elution, Supelco Discovery: gradient 0→60% B during 15 min; for % MeCN at Elution, Luna: Phenomenex Luna C18(2) column, RP-HPLC gradient 0→60% B during 15 min, relative hydrophobicity; for % MeCN at Elution, Luna Omega: Phenomenex Luna Omega Polar C18 column; for % MeCN at Elution, Supelco Discovery: Supelco Discovery BIO Wide pore C18 column
Summary of the method: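 Retention times measured on four C18 columns (Luna C18(2), Luna Omega Polar C18, Aeris Peptide XB-C18, Discovery BIO Wide pore) with MeCN–H2O/0.1% TFA, linear 0–60% B over 15 min, 0.8 mL/min, UV 220 nm. % MeCN at elution = 0.95(0.6Rt/15 min)+0.05(1−0.6Rt/15 min).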

Compound	MIC, SA (S. aureus ATCC 29213)	MIC, A. baumannii NMI 3658/17 (A. baumannii NMI 3658/17)	MIC, AB (A. baumannii ATCC 19606)	log Dmax [1]	MIC, P. aeruginosa NMI 7197/19 [2]	MIC, PA (P. aeruginosa PAO1)	% MeCN at Elution, Aeris Peptide [3]	% MeCN at Elution, Luna [3]	% MeCN at Elution, Luna Omega [3]	% MeCN at Elution, Supelco Discovery [3]	MIC against A. baumannii (A. baumannii ATCC 19606)
NCCCC[C@H](NC(=O)CCN(Cc1ccc(F)cc1)C(=O)[C@H](CCCCN)NC(=O)COCCOCCNC(=O)CCN(Cc1ccc(F)cc1)C(=O)[C@H](CCCCN)NC(=O)CCN(Cc1ccc(F)cc1)C(=O)[C@H](CCCCN)NC(=O)COCCOCCNC(=O)CCN(Cc1ccc(F)cc1)C(=O)[C@H](CCCCN)NC(=O)CCN(Cc1ccc(F)cc1)C(=O)[C@@H](N)CCCCN)C(=O)N(CCC(N)=O)Cc1ccc(F)cc1 [Compound 16, H-[X]2-sPEG2-[X]2-sPEG2-[X]2-NH2]	32 to 64 µg/mL	4 µg/mL (≈ 1.86 µM)	8 µg/mL (≈ 3.72 µM)	< −3.922	>64 µg/mL	32 to 64 µg/mL	39.4 % MeCN	41.5 % MeCN	41.9 % MeCN	41.6 % MeCN	
NCCCC[C@H](NC(=O)CCN(Cc1ccc(F)cc1)C(=O)[C@H](CCCCN)NC(=O)CCN(Cc1ccc(F)cc1)C(=O)[C@H](CCCCN)NC(=O)COCCOCCOCCN)C(=O)N(CCC(=O)NCCOCCOCCOCC(=O)N[C@@H](CCCCN)C(=O)N(CCC(=O)N[C@@H](CCCCN)C(=O)N(CCC(=O)N[C@@H](CCCCN)C(=O)N(CCC(=O)NCCOCCOCCOCC(N)=O)Cc1ccc(F)cc1)Cc1ccc(F)cc1)Cc1ccc(F)cc1)Cc1ccc(F)cc1 [Compound 13, H-sPEG3-[X]3-sPEG3-[X]3-sPEG3-NH2]	>64 µg/mL	16 µg/mL (≈ 6.59 µM)	8 to 16 µg/mL	< −3.911	>64 µg/mL	>64 µg/mL	39.9 % MeCN	41.9 % MeCN	42.8 % MeCN	42.1 % MeCN	
NCCCC[C@H](NC(=O)CCN(Cc1ccc(F)cc1)C(=O)[C@H](CCCCN)NC(=O)COCCNC(=O)CCN(Cc1ccc(F)cc1)C(=O)[C@H](CCCCN)NC(=O)CCN(Cc1ccc(F)cc1)C(=O)[C@H](CCCCN)NC(=O)COCCNC(=O)CCN(Cc1ccc(F)cc1)C(=O)[C@H](CCCCN)NC(=O)CCN(Cc1ccc(F)cc1)C(=O)[C@@H](N)CCCCN)C(=O)N(CCC(N)=O)Cc1ccc(F)cc1 [Compound 15, H-[X]2-sPEG1-[X]2-sPEG1-[X]2-NH2]	>64 µg/mL	4 µg/mL (≈ 1.94 µM)	8 µg/mL (≈ 3.88 µM)	< −3.180	>64 µg/mL	32 to 64 µg/mL	39.0 % MeCN	41.1 % MeCN	41.4 % MeCN	41.2 % MeCN	
NCCCC[C@H](NC(=O)CCN(Cc1ccc(F)cc1)C(=O)[C@H](CCCCN)NC(=O)CCN(Cc1ccc(F)cc1)C(=O)[C@H](CCCCN)NC(=O)CCOCCOCCOCCOCCOCCOCCNC(=O)CCN(Cc1ccc(F)cc1)C(=O)[C@H](CCCCN)NC(=O)CCN(Cc1ccc(F)cc1)C(=O)[C@H](CCCCN)NC(=O)CCN(Cc1ccc(F)cc1)C(=O)[C@@H](N)CCCCN)C(=O)N(CCC(N)=O)Cc1ccc(F)cc1 [Compound 10, H-[X]3-sPEG6-[X]3-NH2]	>64 µg/mL	4 µg/mL (≈ 1.82 µM)	4 µg/mL (≈ 1.82 µM)	< −2.994	>64 µg/mL	16 µg/mL (≈ 7.28 µM)	40.3 % MeCN	42.3 % MeCN	42.8 % MeCN	42.5 % MeCN	1.3 µM (≈ 2.86 µg/mL)
